Molecules are shown by their SMILES.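 96-well plates; 48 h exposure; 5 concentrations. Endpoints by linear interpolation between flanking doses. Not reached: highest tested concentration assigned. GI50: concentration for 50% inhibition of growth. TGI: total growth inhibition.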 Some results are limits rather than exact numbers.

The record followed here is PubChem BioAssay (NCI).

Some test systems named below: SF-268 CNS; A549 NSCLC; OVCAR-5 ovarian; RPMI-8226 leukemia; SK-MEL-28 melanoma; SNB-19 CNS; K-562 leukemia; 786-0 renal; PC-3 prostate; HT29 colon.
Common to all, as to assay: inhibition of tumour cell growth, NCI panel, 48 h

Consider `Cc1c(C(=O)CC(=O)C(=O)Nc2ccc(Cl)cc2)[n+](=O)c2ccccc2n1[O-]`, for which the TGI in the assay on SF-268 CNS, in the assay with A549 NSCLC, with OVCAR-5 ovarian, in the assay with RPMI-8226 leukemia, in the assay with SK-MEL-28 melanoma and with SNB-19 CNS was more than 100 µM in each case. Also, the TGI in the assay on K-562 leukemia and in the assay on 786-0 renal was more than 100 µM each time.
For the compound `COc1ccc(/C(=N\O)c2cc(C)c(OC)c(C)c2)cc1O`, the GI50 with SF-268 CNS is 0.0222 µM; with PC-3 prostate, less than 0.01 µM; with A549 NSCLC it was 0.039 µM; in the assay with OVCAR-5 ovarian it was 0.0631 µM; in the assay with SK-MEL-28 melanoma, 20.9 µM; in the assay on HT29 colon, 0.0446 µM. For the same compound, the GI50 with SNB-19 CNS was 0.0548 µM; in the assay with 786-0 renal, 0.0407 µM. In addition, the TGI was more than 100 µM in the assay with SF-268 CNS; more than 100 µM in the assay with PC-3 prostate; more than 100 µM in the assay on A549 NSCLC; more than 100 µM with OVCAR-5 ovarian; more than 100 µM in the assay with SK-MEL-28 melanoma; 11.8 µM with HT29 colon. Moreover, the TGI in the assay with SNB-19 CNS and with 786-0 renal was more than 100 µM throughout.
Turning to `Cc1ccc(NC(=O)C(=O)CC(=O)c2c(C)n([O-])c3ccccc3[n+]2=O)cc1`, the TGI in the assay on SF-268 CNS is 96.2 µM; in the assay with A549 NSCLC, 87.3 µM; in the assay on OVCAR-5 ovarian it was more than 100 µM; in the assay with RPMI-8226 leukemia, 58.6 µM; with SK-MEL-28 melanoma, more than 100 µM; with HT29 colon it was 86.4 µM. Moreover, the TGI in the assay with SNB-19 CNS is more than 100 µM; with K-562 leukemia, 56.4 µM; in the assay with 786-0 renal, more than 100 µM.
On to `COc1ccc(S(=O)(=O)N/N=C/c2cc(I)cc([N+](=O)[O-])c2O)cc1OC`, for which the TGI is more than 100 µM in the assay on A549 NSCLC; more than 100 µM with OVCAR-5 ovarian; 65.1 µM in the assay on RPMI-8226 leukemia; more than 100 µM in the assay with HT29 colon; 88.3 µM with SNB-19 CNS; more than 100 µM with K-562 leukemia. In addition, the TGI in the assay with 786-0 renal was more than 100 µM.
On to `COc1ccccc1C1c2cc3c(cc2OC(O)(CO)C1C(=O)O)OCO3` (stereo unspecified) (tested in a mixture with another compound), for which the TGI in the assay on SF-268 CNS, in the assay with A549 NSCLC, with OVCAR-5 ovarian, in the assay with RPMI-8226 leukemia, with SK-MEL-28 melanoma and in the assay with HT29 colon was more than 100 µM throughout. Besides, the TGI in the assay on K-562 leukemia and in the assay on 786-0 renal was more than 100 µM in each case.
Take `COc1ccc(CC(=O)NCCc2ccc(OC)c(OC)c2)cc1Br`: the TGI with SF-268 CNS, in the assay with A549 NSCLC, in the assay on OVCAR-5 ovarian, in the assay with SK-MEL-28 melanoma, with HT29 colon and with SNB-19 CNS was more than 100 µM each time. The TGI in the assay on K-562 leukemia and in the assay with 786-0 renal was more than 100 µM throughout.
For the compound `CCN1Cc2c(ccc(F)c2C#N)O[C@@H](C)CNC(=O)c2c(N)nn3ccc1nc23`, the GI50 in the assay with SF-268 CNS is 3.26 µM; in the assay on PC-3 prostate it was 1.64 µM; in the assay with A549 NSCLC it was 2.85 µM; in the assay on OVCAR-5 ovarian it was 2.87 µM; in the assay on SK-MEL-28 melanoma, 1.82 µM; in the assay on HT29 colon, 0.98 µM. The GI50 was 8.93 µM with SNB-19 CNS, 0.175 µM with K-562 leukemia and 2.85 µM in the assay on 786-0 renal. The TGI with SF-268 CNS amounted to 20.3 µM; with PC-3 prostate it was 26.6 µM; in the assay with A549 NSCLC it was 24 µM; with OVCAR-5 ovarian, 19.8 µM; with SK-MEL-28 melanoma it was 11.5 µM; with HT29 colon, 46.7 µM. Besides, the figures for the TGI in the assay with SNB-19 CNS, in the assay with K-562 leukemia and in the assay on 786-0 renal were 39.3 µM, more than 100 µM and 15.9 µM, respectively.
With `FC(F)(F)c1ccc(C#Cc2ccccc2C#Cc2ccccc2)cc1`, the GI50 with SF-268 CNS is 42.9 µM; in the assay with PC-3 prostate, 51.5 µM; with A549 NSCLC, 49.9 µM; in the assay with OVCAR-5 ovarian, 48.7 µM; in the assay with SK-MEL-28 melanoma, more than 100 µM; with HT29 colon it was 42.6 µM. The GI50 is 69.3 µM in the assay with SNB-19 CNS, 34.2 µM with K-562 leukemia and 46.1 µM in the assay on 786-0 renal. The TGI in the assay with SF-268 CNS, in the assay with PC-3 prostate, in the assay on A549 NSCLC, in the assay on OVCAR-5 ovarian, in the assay on SK-MEL-28 melanoma and in the assay on HT29 colon was more than 100 µM each time. Moreover, the figures for the TGI with SNB-19 CNS, with K-562 leukemia and in the assay on 786-0 renal were more than 100 µM, 89.5 µM and more than 100 µM, respectively.
For the compound `CN1CC[C@]2(C)c3cc(O)ccc3CC3CCCC1C32C` (stereo partly specified), the TGI in the assay with SF-268 CNS, with A549 NSCLC, in the assay with OVCAR-5 ovarian, with RPMI-8226 leukemia, with SK-MEL-28 melanoma and in the assay with HT29 colon was more than 100 µM each time. The TGI in the assay on SNB-19 CNS, in the assay with K-562 leukemia and in the assay with 786-0 renal was more than 100 µM throughout.
Take `C=C1C(=O)OC2C=C(CCC(C)=O)C(C)C(OC(C)=O)CC12` (stereo unspecified): the TGI in the assay with SF-268 CNS was 32.8 µM; with A549 NSCLC it was 55.4 µM; with OVCAR-5 ovarian it was 29.6 µM; in the assay on RPMI-8226 leukemia it was 24 µM; with SK-MEL-28 melanoma, 20.8 µM; in the assay on HT29 colon, 27.1 µM. Also, the values for the TGI in the assay on SNB-19 CNS, in the assay with K-562 leukemia and in the assay with 786-0 renal were 37.2 µM, 44 µM and 21.4 µM, respectively.
As for `O=c1oc2cc(N=Cc3ccc4c(c3)OCO4)ccc2c2ccccc12`, the TGI with SF-268 CNS, in the assay on PC-3 prostate, in the assay on A549 NSCLC, in the assay on OVCAR-5 ovarian, in the assay with SK-MEL-28 melanoma and with HT29 colon was more than 100 µM throughout. Besides, the TGI in the assay on SNB-19 CNS, with K-562 leukemia and with 786-0 renal was more than 100 µM throughout.
Regarding `CN(C)CCNC(=O)c1cccc2[nH]c(-c3cccnc3)nc12`, the TGI is 98.7 µM with SF-268 CNS; 43.5 µM with A549 NSCLC; 64.2 µM in the assay on OVCAR-5 ovarian; 83.8 µM in the assay with SK-MEL-28 melanoma; 92.8 µM in the assay with HT29 colon; more than 100 µM in the assay with SNB-19 CNS. For the same compound, the figures for the TGI in the assay on K-562 leukemia and in the assay on 786-0 renal were more than 100 µM and 55.6 µM, respectively.
Take `O=[N+]([O-])c1cc(C2SCc3nc4ccccc4n32)ccc1Cl` (stereo unspecified): the TGI with SF-268 CNS was 81.1 µM; in the assay on A549 NSCLC, more than 100 µM; in the assay on OVCAR-5 ovarian it was 76.8 µM; in the assay on RPMI-8226 leukemia, 60.2 µM; with SK-MEL-28 melanoma, more than 100 µM; with HT29 colon, more than 100 µM. Besides, the TGI with SNB-19 CNS, in the assay on K-562 leukemia and in the assay with 786-0 renal was more than 100 µM in each case.
